Measurements as given in US4629786A, “C-20- and C-23 modified macrolide derivatives” (Eli Lilly and Company, priority 1984, dated 1986).
Values after ≈ are worked out from the molar mass of the structure shown. Read-outs that look alike come from different tables or passages of the source.

Experiments:
[1] = system: Streptococcus pneumoniae Group D X66; assay: MIC, standard agar-dilution assay, Streptococcus pneumoniae Group D X66; format: cell-based
Method: (§1) Certain of the derivatives are active against some gram-negative bacteria, such as Pasteurella species. The MIC's in Table II were determined by standard agar-dilution assays.

[2] = system: Haemophilus influenzae C.L.; assay: MIC, standard agar-dilution assay, Haemophilus influenzae C.L.; format: cell-based
Method: as §1

[3] = system: Escherichia coli EC14; assay: MIC, standard agar-dilution assay, Escherichia coli EC14; format: cell-based
Method: as §1

[4] = physchem
[5] = system: Streptococcus pneumoniae Park I; assay: MIC, standard agar-dilution assay, Streptococcus pneumoniae Park I; format: cell-based
Method: as §1

[6] = system: Escherichia coli TEM; assay: MIC, standard agar-dilution assay, Escherichia coli TEM; format: cell-based
Method: as §1

[7] = system: Streptococcus pyogenes C203; assay: protection of mice experimentally infected with S. pyogenes C203; format: in vivo; settings: mg/kg × 2, doses given 1 and 4 hours postinfection
Method: Some of the derivatives of this invention have shown in vivo antimicrobial activity against experimentally-induced infections in laboratory animals. When two doses of test compound were administered to mice experimentally infected with S. pyogenes C203, the activity observed was measured as an ED50 value [effective dose in mg/kg to protect 50% of the test animals: see Warren Wick, et al., J. Bacteriol. 81, 233-235 (1961)].
^a mg/kg × 2; doses given 1 and 4 hours postinfection

[8] = system: Streptococcus pneumoniae Group D X9960; assay: MIC, standard agar-dilution assay, Streptococcus pneumoniae Group D X9960; format: cell-based
Method: as §1

[9] = system: Staphylococcus aureus X400; assay: MIC, standard agar-dilution assay, Staphylococcus aureus X400; format: cell-based
Method: as §1

[10] = system: Klebsiella pneumoniae KAE; assay: MIC, standard agar-dilution assay, Klebsiella pneumoniae KAE; format: cell-based
Method: as §1

[11] = system: Streptococcus pyogenes C203; assay: MIC, standard agar-dilution assay, Streptococcus pyogenes C203; format: cell-based
Method: as §1

[12] = system: Staphylococcus aureus V41; assay: MIC, standard agar-dilution assay, Staphylococcus aureus V41; format: cell-based
Method: as §1

[13] = system: Haemophilus influenzae 76; assay: MIC, standard agar-dilution assay, Haemophilus influenzae 76; format: cell-based
Method: as §1

[14] = system: Staphylococcus epidermidis EPI1; assay: MIC, standard agar-dilution assay, Staphylococcus epidermidis EPI1; format: cell-based
Method: as §1

[15] = system: Klebsiella pneumoniae X26; assay: MIC, standard agar-dilution assay, Klebsiella pneumoniae X26; format: cell-based
Method: as §1

[16] = system: Staphylococcus epidermidis EPI2; assay: MIC, standard agar-dilution assay, Staphylococcus epidermidis EPI2; format: cell-based
Method: as §1

[17] = system: Staphylococcus aureus S13E; assay: MIC, standard agar-dilution assay, Staphylococcus aureus S13E; format: cell-based
Method: as §1

[18] = system: Staphylococcus aureus X1.1; assay: MIC, standard agar-dilution assay, Staphylococcus aureus X1.1; format: cell-based
Method: as §1

[19] = Titration pKa
[20] = Haemophilus influenzae C.L., Ampicillin-sensitive strain, read-out: MIC
[21] = Escherichia coli TEM, read-out: MIC
[22] = Streptococcus pneumoniae Group D X9960, read-out: MIC
[23] = Staphylococcus aureus X400, Methicillin-resistant strain, read-out: MIC
[24] = Haemophilus influenzae 76, Ampicillin-resistant strain, read-out: MIC
[25] = Streptococcus pneumoniae Park I, read-out: MIC
[26] = Staphylococcus aureus V41, Penicillin-resistant strain, read-out: MIC
[27] = Klebsiella pneumoniae KAE, read-out: MIC

Row | SMILES | MIC ([1]; Streptococcus pneumoniae) [µg/mL] | MIC [2, 20] [µg/mL] | MIC ([3]; read-out: MIC) [µg/mL] | ED50 ([7]; C203, Oral) [mg/kg] | ED50 ([7]; C203, sc, Subcutaneous) [mg/kg] | MIC [8, 22] [µg/mL] | MIC [9, 23] [µg/mL] | MIC ([11]; read-out: MIC) [µg/mL] | MIC ([12]; Staphylococcus aureus, V41) [µg/mL] | MIC [13, 24] [µg/mL] | MIC ([15]; read-out: MIC) [µg/mL] | MIC [16] [µg/mL] | MIC [17] [µg/mL] | MIC [18] [µg/mL] | MIC [3] [µg/mL] | MIC [5, 25] [µg/mL] | MIC ([6]; Escherichia coli) [µg/mL] | MIC ([14]; read-out: MIC) [µg/mL] | MIC ([18]; read-out: MIC) [µg/mL] | MIC [10, 27] [µg/mL] | other results
1 | CCC1OC(=O)CC(O)C(C)C(OC2OC(C)C(O)C(N(C)C)C2O)C(CCN2CC3CCC(CC3)C2)CC(C)C(=O)C=CC(C)=CC1CO (stereo not shown) [Compound 13, 20-DH-DO-20-[3-Azabicyclo(3.2.2)-nonan-3-yl]-OMT] | 4 (≈ 5.66 µM) | 4 (≈ 5.66 µM) | 32 (≈ 45.3 µM) | 87 | 5.9 | 8 (≈ 11.3 µM) | 1 (≈ 1.41 µM) | 2 (≈ 2.83 µM) | 1 (≈ 1.41 µM) | 2 (≈ 2.83 µM) | 2 (≈ 2.83 µM) | 0.25 (≈ 0.354 µM) | 1 (≈ 1.41 µM) | 1 (≈ 1.41 µM) | – | – | – | – | – | – | pKa ([4]; Titration pKa value (first)): 7.7; pKa ([4]; Titration pKa value (second)): 9.3; MIC ([5]; Streptococcus pneumoniae): 0.25 µg/mL (≈ 0.354 µM); MIC [6, 21]: 8 µg/mL (≈ 11.3 µM); MIC ([10]; Klebsiella pneumoniae): 64 µg/mL (≈ 90.5 µM); MIC [14]: 1 µg/mL (≈ 1.41 µM)
2 | CCC1OC(=O)CC(O)C(C)C(OC2OC(C)C(O)C(N(C)C)C2O)C(CCN2CCOCC2)CC(C)C(=O)C=CC(C)=CC1CO (stereo not shown) [Compound 14, 20-DH-DO-20-Morpholino-OMT] | – | 16 (≈ 23.9 µM) | – | > 100 | > 10 | 4 (≈ 5.98 µM) | 8 (≈ 12 µM) | 1 (≈ 1.5 µM) | – | 4 (≈ 5.98 µM) | – | 1 (≈ 1.5 µM) | 4 (≈ 5.98 µM) | – | 128 (≈ 191 µM) | 0.5 (≈ 0.748 µM) | 64 (≈ 95.7 µM) | 2 (≈ 2.99 µM) | 4 (≈ 5.98 µM) | – | pKa ([19]; Titration pKa value (first)): 6.5; pKa ([19]; Titration pKa value (second)): 8.4; MIC ([10]; Klebsiella pneumoniae KAE, symbol for not active at 128 mcg/ml, read-out: MIC): > 128 µg/mL; MIC [12, 26]: 4 µg/mL (≈ 5.98 µM); MIC [15]: 4 µg/mL (≈ 5.98 µM)
3 | CCC1OC(=O)CC(O)C(C)C(OC2OC(C)C(O)C(N(C)C)C2O)C(CCN2CCCCCC2)CC(C)C(=O)C=CC(C)=CC1C (stereo not shown) [Compound 23] | – | 16 (≈ 24.1 µM) | – | > 100 | > 10 | 16 (≈ 24.1 µM) | 8 (≈ 12 µM) | – | – | 16 (≈ 24.1 µM) | 2 (≈ 3.01 µM) | 1 (≈ 1.5 µM) | 4 (≈ 6.02 µM) | – | 128 (≈ 193 µM) | – | 8 (≈ 12 µM) | 2 (≈ 3.01 µM) | 4 (≈ 6.02 µM) | 128 (≈ 193 µM) | MIC ([1]; Streptococcus pneumoniae Group D X66, read-out: MIC): 8 µg/mL (≈ 12 µM); MIC [11]: 0.5 µg/mL (≈ 0.752 µM); MIC [12, 26]: 4 µg/mL (≈ 6.02 µM)
4 | CCC1OC(=O)CC(O)C(C)C(OC2OC(C)C(O)C(N(C)C)C2O)C(CCN2CCC(c3ccccc3)CC2)CC(C)C(=O)C=CC(C)=CC1CO (stereo not shown) [Compound 4, 20-DH-DO-20-(4-Phenylpiperidin-1-yl)-OMT] | 2 (≈ 2.69 µM) | – | 32 (≈ 43.1 µM) | > 100 | > 10 | 4 (≈ 5.38 µM) | – | – | 2 (≈ 2.69 µM) | – | – | 0.5 (≈ 0.673 µM) | 2 (≈ 2.69 µM) | 2 (≈ 2.69 µM) | – | 0.25 (≈ 0.336 µM) | 8 (≈ 10.8 µM) | 1 (≈ 1.35 µM) | – | – | MIC ([2]; Haemophilus influenzae): 8 µg/mL (≈ 10.8 µM); MIC ([9]; Staphylococcus aureus, X400): 2 µg/mL (≈ 2.69 µM); MIC ([10]; Klebsiella pneumoniae): 64 µg/mL (≈ 86.1 µM); MIC [11]: 2 µg/mL (≈ 2.69 µM); MIC ([13]; Haemophilus influenzae, 76): 8 µg/mL (≈ 10.8 µM); MIC [15]: 2 µg/mL (≈ 2.69 µM)
5 | CCC1OC(=O)CC(O)C(C)C(OC2OC(C)C(O)C(N(C)C)C2O)C(CCN2CCCCCCC2)CC(C)C(=O)C=CC(C)=CC1CN1CCCCCCC1 (stereo not shown) [Compound 15, 20-DH-DO-23-Deoxy-20,23-di(octahydroazocin-1-yl)-OMT] | 0.5 (≈ 0.633 µM) | 0.5 (≈ 0.633 µM) | 4 (≈ 5.06 µM) | > 50 | > 10 | 1 (≈ 1.27 µM) | – | 0.125 (≈ 0.158 µM) | 0.5 (≈ 0.633 µM) | 1 (≈ 1.27 µM) | 2 (≈ 2.53 µM) | 0.25 (≈ 0.316 µM) | 0.5 (≈ 0.633 µM) | – | – | 0.125 (≈ 0.158 µM) | – | 0.5 (≈ 0.633 µM) | 0.5 (≈ 0.633 µM) | 8 (≈ 10.1 µM) | MIC [6, 21]: 2 µg/mL (≈ 2.53 µM); MIC ([9]; Staphylococcus aureus, X400): 0.5 µg/mL (≈ 0.633 µM); pKa ([19]; Titration pKa value (first)): 6.9; pKa ([19]; Titration pKa value (second)): 8.05; pKa ([19]; Titration pKa value (third), third printed value): 8.9
6 | CCC1OC(=O)CC(O)C(C)C(OC2OC(C)C(O)C(N(C)C)C2O)C(CCN2CCCCCC2)CC(C)C(=O)C=CC(C)=CC1CO (stereo not shown) [Compound 5] | 16 (≈ 23.5 µM) | – | – | > 100 | 7.8 | – | 8 (≈ 11.7 µM) | – | 4 (≈ 5.87 µM) | – | 4 (≈ 5.87 µM) | 2 (≈ 2.94 µM) | 4 (≈ 5.87 µM) | 4 (≈ 5.87 µM) | 128 (≈ 188 µM) | – | 16 (≈ 23.5 µM) | 2 (≈ 2.94 µM) | – | 128 (≈ 188 µM) | MIC ([2]; Haemophilus influenzae): 16 µg/mL (≈ 23.5 µM); MIC ([8]; Streptococcus pneumoniae): 16 µg/mL (≈ 23.5 µM); MIC [11]: 0.5 µg/mL (≈ 0.734 µM); MIC ([13]; Haemophilus influenzae, 76): 16 µg/mL (≈ 23.5 µM)
